According to patent publication US11958816B1, “N′-({[(5-phenyl-1,3,4-oxadiazol-2-yl)sulfanyl]acetyl}oxy)benzenecarboximidamide as an antimicrobial compound” (KING FAISAL UNIVERSITY, priority 2023, dated 2024):

What was measured:
Assay type in all cases: cell-based
[1] = test system: Chrysosporium keratinophilum; experiment: Agar plate disc-diffusion, antifungal activity (inhibition zone); conditions: Sabouraud's dextrose agar, 37° C., 72 h, DMSO zone subtracted
Experimental: (§1) The agar plate disc-diffusion method was applied. […] The discs were then placed onto the surface of agar plates (nutrient agar for bacteria and Sabouraud's dextrose agar for fungi) seeded with the test organism. Each plate contained 15 mL of the agar medium, previously seeded with 0.2 mL of the broth culture of each organism pregrown for 18 hours. The plates were incubated at 37° C. for 48 h, and 72 h for fungi. The inhibition zones were measured in mm. Discs impregnated with DMSO were used as a control, and its inhibition zone was subtracted from the tested compound actual inhibition zone.

Aspergillus flavus = experiment: as above; conditions: Sabouraud's dextrose agar, 37° C., 72 h, DMSO zone subtracted
Experimental: as §1

Staphylococcus aureus = experiment: Agar plate disc-diffusion, antibacterial activity (inhibition zone); conditions: nutrient agar, 37° C., 48 h, DMSO zone subtracted
Experimental: as §1

Pseudomonas aeruginosa = experiment: as above; conditions: nutrient agar, 37° C., 48 h, DMSO zone subtracted
Experimental: as §1

Escherichia coli = experiment: as above; conditions: nutrient agar, 37° C., 48 h, DMSO zone subtracted
Experimental: as §1

Bacillus cereus = experiment: as above; conditions: nutrient agar, 37° C., 48 h, DMSO zone subtracted
Experimental: as §1

[2] = A = concentration of comp. = 10,000 μL
[3] = B = concentration of comp. = 30,000 μL
[4] = C = concentration of comp. = 50,000 μL

N/C(=N\OC(=O)CSc1nnc(-c2ccccc2)o1)c1ccccc1 [Compound 3, N′-({[(5-phenyl-1,3,4-oxadiazol-2-yl)sulfanyl]acetyl}oxy)benzenecarboximidamide]
inhibition zone, Chrysosporium keratinophilum, A [1, 2]: 23 mm | inhibition zone, Chrysosporium keratinophilum, B [1, 3]: 26 mm | inhibition zone, Chrysosporium keratinophilum, C [1, 4]: 40 mm | inhibition zone, Aspergillus flavus, A (Aspergillus flavus; [2]): 24 mm | inhibition zone, Aspergillus flavus, B (Aspergillus flavus; [3]): 29 mm | inhibition zone, Aspergillus flavus, C (Aspergillus flavus; [4]): 41 mm | inhibition zone, Staphylococcus aureus, A (Staphylococcus aureus; [2]): 24 mm | inhibition zone, Staphylococcus aureus, B (Staphylococcus aureus; [3]): 28 mm | inhibition zone, Staphylococcus aureus, C (Staphylococcus aureus; [4]): 37 mm | inhibition zone, Pseudomonas aeruginosa, A (Pseudomonas aeruginosa; [2]): 17 mm | inhibition zone, Pseudomonas aeruginosa, B (Pseudomonas aeruginosa; [3]): 24 mm | inhibition zone, Pseudomonas aeruginosa, C (Pseudomonas aeruginosa; [4]): 36 mm | inhibition zone, Escherichia coli, A (Escherichia coli; [2]): 25 mm | inhibition zone, Escherichia coli, B (Escherichia coli; [3]): 37 mm | inhibition zone, Escherichia coli, C (Escherichia coli; [4]): 45 mm | inhibition zone, Bacillus Cereus, A (Bacillus cereus; [2]): 23 mm | inhibition zone, Bacillus Cereus, B (Bacillus cereus; [3]): 28 mm | inhibition zone, Bacillus Cereus, C (Bacillus cereus; [4]): 40 mm
